Experimental data published in paper PMC11415492 (Nature Communications, 2024).
Values joined by “and” are separate entries in the source; they are usually repeats but may differ in a detail not shown here. Identical values can stand only once. Counter-ions that a name gives are not always drawn. Like-named read-outs stand apart in the source and are kept apart here.

Assays:
hKOR = target: T1, hKOR (Homo sapiens, UniProt P41145); experiment: Nanobody Nb33 sensor recruitment BRET assay; assay type: cell-based
T1 construct: expressed in transfected cells; host or cells: HEK-293T, transient (PEI)

h5-HT2A = h5-HT2A (Homo sapiens, UniProt P28223); experiment: IP1 functional assay, agonist; assay type: cell-based; settings: up to 10 µM
h5-HT2B = h5-HT2B (Homo sapiens, UniProt P41595); experiment: IP1 functional assay, antagonist; assay type: cell-based; settings: read-out: % Inhibition of Control Agonist Response
male rats = experiment: Food maintained (operant) responding; assay type: in vivo, rat; settings: 40 mg/kg i.p.
Procedure: For food maintained responding studies, food access was restricted such that rats were maintained at 90% of their normal body weight until responding stabilized, at which point rats were provided 12–15 g of rodent chow in addition to the food pellets earned during the experimental session.
Rats were lever trained as described in the general methods. Responding was maintained as described with notable difference in timeout (TO) period 6 min and sessions lasting 2 h or until a maximum of 20 pellets was delivered. […] Responding was considered stable when variation in the number of reinforcers for three consecutive sessions was less than 20%. For the group receiving oxa-noribogaine, data were analyzed using a two-way ANOVA with Šidák’s multiple comparisons test for post hoc comparison.

[1] = Pharmacokinetic study in mice (plasma and brain), with estimated free drug concentrations; assay type: in vivo, mouse; settings: for Brain Concentration (total) / Free Brain Concentration / Free Plasma Concentration / Plasma Concentration (total) / concentration at 0.083 h / concentration at 0.25 h / concentration at 0.5 h / concentration at 1 h / concentration at 2 h: mice, individual animals; for Brain Concentration (total) / Free Brain Concentration / Free Plasma Concentration / Plasma Concentration (total) / Total concentration / concentration at 0.083 h / concentration at 0.25 h / concentration at 0.5 h / concentration at 1 h / concentration at 2 h: 10 mg/kg s.c.; for Brain Concentration (total) / Free Brain Concentration / Free Plasma Concentration / Plasma Concentration (total) / concentration at 0.083 h / concentration at 0.25 h / concentration at 0.5 h / concentration at 1 h / concentration at 2 h / Cmax / AUC(0-inf) / AUC(0-t): 10 mg/kg; for Total concentration: Mice; for CLf / T1/2 / Cmax / AUC(0-inf) / AUC(0-t) / Tmax / half-life / Vd/F: male C57BL/6 mice; for concentration at 0.083 h / concentration at 0.25 h / concentration at 0.5 h / concentration at 1 h / concentration at 2 h / Cmax / AUC(0-inf) / AUC(0-t): male, C57BL/6, mouse; for concentration at 0.083 h / concentration at 0.25 h / concentration at 0.5 h / concentration at 1 h / concentration at 2 h / Cmax / AUC(0-inf) / AUC(0-t) / Tmax / half-life / Vd/F: sc; for Tmax / half-life / Vd/F: mouse; for half-life: read-out: T1/2z (converted); for Vd/F: read-out: VZ/F
[2] = Noribogaine clinical dose escalation data (plasma concentration, QT); assay type: in vivo; settings: from reported clinical total plasma concentrations and own human plasma protein binding
[3] = human
hMOR = hMOR (Homo sapiens, UniProt P35372); experiment: cell-based
Chain of hMOR (P35372 whole entry): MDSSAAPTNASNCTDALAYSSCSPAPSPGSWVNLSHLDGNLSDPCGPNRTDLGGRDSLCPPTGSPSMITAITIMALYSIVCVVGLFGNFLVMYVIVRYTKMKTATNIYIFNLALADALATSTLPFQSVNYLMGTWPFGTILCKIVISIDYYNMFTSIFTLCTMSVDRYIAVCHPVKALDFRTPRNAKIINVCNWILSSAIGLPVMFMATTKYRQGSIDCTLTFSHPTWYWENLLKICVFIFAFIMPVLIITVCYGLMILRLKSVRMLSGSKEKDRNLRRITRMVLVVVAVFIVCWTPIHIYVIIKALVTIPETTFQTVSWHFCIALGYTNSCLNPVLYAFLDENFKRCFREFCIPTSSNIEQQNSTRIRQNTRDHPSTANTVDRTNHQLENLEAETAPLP

Chain of h5-HT2B (P41595 whole entry): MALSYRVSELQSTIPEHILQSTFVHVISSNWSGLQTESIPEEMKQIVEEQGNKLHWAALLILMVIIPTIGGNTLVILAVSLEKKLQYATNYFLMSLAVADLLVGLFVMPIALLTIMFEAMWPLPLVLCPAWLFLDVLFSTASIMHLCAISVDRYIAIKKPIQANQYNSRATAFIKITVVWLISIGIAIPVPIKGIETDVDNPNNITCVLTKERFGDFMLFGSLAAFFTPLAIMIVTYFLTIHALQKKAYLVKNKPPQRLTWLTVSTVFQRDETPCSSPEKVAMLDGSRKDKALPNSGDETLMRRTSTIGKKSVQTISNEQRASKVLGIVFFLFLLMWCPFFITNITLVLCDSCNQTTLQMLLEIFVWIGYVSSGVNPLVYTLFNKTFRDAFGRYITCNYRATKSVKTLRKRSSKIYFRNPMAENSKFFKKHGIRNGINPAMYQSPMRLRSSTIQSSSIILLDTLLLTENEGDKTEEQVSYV
Chain of h5-HT2A (P28223 whole entry): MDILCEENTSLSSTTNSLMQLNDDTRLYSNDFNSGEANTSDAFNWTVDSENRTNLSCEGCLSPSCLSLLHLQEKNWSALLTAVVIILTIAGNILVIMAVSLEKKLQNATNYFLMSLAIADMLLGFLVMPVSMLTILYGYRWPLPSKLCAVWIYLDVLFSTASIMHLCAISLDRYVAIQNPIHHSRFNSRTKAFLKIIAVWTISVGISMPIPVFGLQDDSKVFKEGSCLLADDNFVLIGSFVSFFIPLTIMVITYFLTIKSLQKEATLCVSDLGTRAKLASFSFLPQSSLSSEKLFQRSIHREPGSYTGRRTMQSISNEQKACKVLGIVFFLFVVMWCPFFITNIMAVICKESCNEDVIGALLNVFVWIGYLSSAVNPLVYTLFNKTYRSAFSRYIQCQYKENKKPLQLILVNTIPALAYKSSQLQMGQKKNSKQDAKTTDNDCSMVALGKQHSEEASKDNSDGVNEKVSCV
T1 sequence (P41145 whole entry): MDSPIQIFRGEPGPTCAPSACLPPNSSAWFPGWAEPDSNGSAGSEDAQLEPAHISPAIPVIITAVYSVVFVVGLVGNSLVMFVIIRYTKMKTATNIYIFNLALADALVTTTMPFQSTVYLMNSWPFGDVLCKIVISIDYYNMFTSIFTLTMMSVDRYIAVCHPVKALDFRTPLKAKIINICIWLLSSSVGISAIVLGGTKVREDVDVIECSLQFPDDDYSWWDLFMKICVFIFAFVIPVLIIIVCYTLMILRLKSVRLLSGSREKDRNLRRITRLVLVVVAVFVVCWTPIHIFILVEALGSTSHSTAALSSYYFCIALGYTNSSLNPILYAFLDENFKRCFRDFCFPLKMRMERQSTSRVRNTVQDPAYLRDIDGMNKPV

For `CCC1CC2CC3c4[nH]c5ccc(O)cc5c4CCN(C2)C13` (stereo not shown) [Noribogaine, Noribogaine hydrochloride], the “% effect at 100 µM” value (hKOR) was less than 3%, the “agonist activity at h5-HT2R” value (h5-HT2A) was “No agonist activity” and the inhibition at 10 µM (h5-HT2B; 1.00E-05 M) was 10%. For the same compound, the inhibition at 1 µM (h5-HT2B; 1.00E-06 M) was 7%, the “suppression of responding maintained by food on day 1” value (male rats) was greater than 80% and the “Brain Concentration (total)” value ([1]; 0.083 h) was 6.61 µmol/L and 8.95 µmol/L. The “Free Brain Concentration” value ([1]; 0.083 h) was 0.78 µmol/L and 1.057 µmol/L, the “Free Plasma Concentration” value ([1]; 0.083 h) was 2258 nM and 2308 nM and 1083 nM and the “Plasma Concentration (total)” value ([1]; 0.083 h) was 4.83 µmol/L and 2.26 µmol/L and 4.72 µmol/L. The “Brain Concentration (total)” value ([1]; 0.25 h) was 14.1 µmol/L and 14.82 µmol/L, the “Free Brain Concentration” value ([1]; 0.25 h) was 1.664 µmol/L and 1.749 µmol/L and the “Free Plasma Concentration” value ([1]; 0.25 h) was 2314 nM and 3247 nM. For the same compound, the “Plasma Concentration (total)” value ([1]; 0.25 h) was 6.79 µmol/L and 6.1 µmol/L, the “Brain Concentration (total)” value ([1]; 0.5 h) was 18.56 µmol/L and 18.39 µmol/L and the “Free Brain Concentration” value ([1]; 0.5 h) was 2.19 µmol/L and 2.17 µmol/L. The “Free Plasma Concentration” value ([1]; 0.5 h) was 2561 nM and 3671 nM, the “Plasma Concentration (total)” value ([1]; 0.5 h) was 7.68 µmol/L and 6.99 µmol/L and the “Brain Concentration (total)” value ([1]; 1 h) was 11.3 µmol/L and 11.04 µmol/L. The “Free Brain Concentration” value ([1]; 1 h) was 1.334 µmol/L and 1.303 µmol/L, the “Free Plasma Concentration” value ([1]; 1 h) was 1924 nM and 1899 nM and the “Plasma Concentration (total)” value ([1]; 1 h) was 3.97 µmol/L and 4.11 µmol/L. The “Brain Concentration (total)” value ([1]; 2 h) was 4.77 µmol/L and 6.38 µmol/L, the “Free Brain Concentration” value ([1]; 2 h) was 0.563 µmol/L and 0.752 µmol/L and the “Free Plasma Concentration” value ([1]; 2 h) was 1638 nM and 938 nM. For the same compound, the “Plasma Concentration (total)” value ([1]; 2 h) was 1.96 µmol/L and 2.67 µmol/L, the “Brain Concentration (total)” value ([1]; 4 h) was 2.93 µmol/L and 1.78 µmol/L and 5.54 µmol/L and the “Free Brain Concentration” value ([1]; 4 h) was 0.346 µmol/L and 0.211 µmol/L and 0.654 µmol/L. For the same compound, the “Free Plasma Concentration” value ([1]; 4 h) was 1067 nM and 684 nM and 289 nM, the “Plasma Concentration (total)” value ([1]; 4 h) was 1.43 µmol/L and 0.61 µmol/L and 2.23 µmol/L and the “Brain Concentration (total)” value ([1]; 8 h) was 0.81 µmol/L and 0.72 µmol/L and 0.21 µmol/L. For the same compound, the “Free Brain Concentration” value ([1]; 8 h) was 0.095 µmol/L and 0.085 µmol/L and 0.024 µmol/L, the “Free Plasma Concentration” value ([1]; 8 h) was 47 nM and 125 nM and 114 nM and the “Plasma Concentration (total)” value ([1]; 8 h) was 0.26 µmol/L and 0.24 µmol/L and 0.1 µmol/L. The “Brain Concentration (total)” value ([1]; 24 h) was 0.03 µmol/L and 0 µmol/L (2×), the “Free Brain Concentration” value ([1]; 24 h) was 0.004 µmol/L and 0 µmol/L (2×) and the “Free Plasma Concentration” value ([1]; 24 h) was 2 nM and 4 nM and 0 nM. For the same compound, the “Plasma Concentration (total)” value ([1]; 24 h) was 0.01 µmol/L and 0 µmol/L (2×), the Total concentration ([1]; Brain) was 17.18 µmol/L and the CLf ([1]; Brain, single s.c. 10 mg/kg) was 13.76 mL/min/kg. It also gave a T1/2 ([1]; Brain, single s.c. 10 mg/kg) of 1.71 h, a Total concentration ([1]; Plasma) of 6.68 µmol/L and a CLf ([1]; Plasma, single s.c. 10 mg/kg) of 31.87 mL/min/kg. For the same compound, the T1/2 ([1]; Plasma, single s.c. 10 mg/kg) was 2.76 h, the CLf ([1]; brain, s.c. 10 mg/kg) was 13.76 mL/min/kg and the concentration at 0.083 h ([1]; brain, 0.083 h, read-out: Brain Concentration (total)) was 6750 nM. It also gave a concentration at 0.083 h ([1]; brain, 0.083 h, read-out: Free Brain Concentration) of 797 nM, a concentration at 0.25 h ([1]; brain, 0.25 h, read-out: Brain Concentration (total)) of 8040 nM and a concentration at 0.25 h ([1]; brain, 0.25 h, read-out: Free Brain Concentration) of 949 nM. For the same compound, the concentration at 0.5 h ([1]; brain, 0.5 h, read-out: Brain Concentration (total)) was 14600 nM, the concentration at 0.5 h ([1]; brain, 0.5 h, read-out: Free Brain Concentration) was 1720 nM and the concentration at 1 h ([1]; brain, 1 h, read-out: Brain Concentration (total)) was 11700 nM. For the same compound, the concentration at 1 h ([1]; brain, 1 h, read-out: Free Brain Concentration) was 1380 nM, the concentration at 2 h ([1]; brain, 2 h, read-out: Brain Concentration (total)) was 7820 nM and the concentration at 2 h ([1]; brain, 2 h, read-out: Free Brain Concentration) was 923 nM. For the same compound, the Cmax ([1]; brain, Brain (brain conc. as ng/g), single s.c. 10 mg/kg) was 5090 ng/mL, the AUC(0-inf) ([1]; brain, s.c. 10 mg/kg) was 12100 ng·h/mL and the AUC(0-t) ([1]; brain, s.c. 10 mg/kg) was 11700 ng·h/mL. The Cmax ([1]; brain, s.c. 10 mg/kg) was 5090 ng/g, the AUC(0-inf) ([1]; brain, single s.c. 10 mg/kg) was 12100 ng·h/mL and the AUC(0-t) ([1]; brain, single s.c. 10 mg/kg) was 11700 ng·h/mL and 39.4 µM·h. The Cmax ([1]; brain, single s.c. 10 mg/kg) was 17200 nM, the concentration at 0.25 h ([1]; plasma, 0.25 h, read-out: Free Plasma Concentration) was 2910 nM and the concentration at 0.25 h ([1]; plasma, 0.25 h, read-out: Plasma Concentration (total)) was 4840 nM. The concentration at 0.5 h ([1]; plasma, 0.5 h, read-out: Free Plasma Concentration) was 3340 nM, the concentration at 0.5 h ([1]; plasma, 0.5 h, read-out: Plasma Concentration (total)) was 5360 nM and the concentration at 1 h ([1]; plasma, 1 h, read-out: Free Plasma Concentration) was 1960 nM. It also gave a concentration at 1 h ([1]; plasma, 1 h, read-out: Plasma Concentration (total)) of 4030 nM, a concentration at 2 h ([1]; plasma, 2 h, read-out: Free Plasma Concentration) of 1280 nM and a concentration at 2 h ([1]; plasma, 2 h, read-out: Plasma Concentration (total)) of 3430 nM. For the same compound, the AUC(0-inf) ([1]; plasma, s.c. 10 mg/kg) was 5230 ng·h/mL, the AUC(0-t) ([1]; plasma, s.c. 10 mg/kg) was 5220 ng·h/mL and the Cmax ([1]; plasma, s.c. 10 mg/kg) was 1980 ng/mL. For the same compound, the AUC(0-inf) ([1]; plasma, single s.c. 10 mg/kg) was 5230 ng·h/mL, the AUC(0-t) ([1]; plasma, single s.c. 10 mg/kg) was 5220 ng·h/mL and 17.6 µM·h and the Cmax ([1]; plasma, single s.c. 10 mg/kg) was 1980 ng/mL and 6.68 µM. For the same compound, the Tmax ([1]; brain, s.c. 10 mg/kg) was 0.5 h, the half-life ([1]; brain, s.c. 10 mg/kg) was 1.71 h and the Vd/F ([1]; brain, s.c. 10 mg/kg) was 2.04 L/kg. For the same compound, the Tmax ([1]; plasma, s.c. 10 mg/kg) was 0.5 h, the half-life ([1]; plasma, s.c. 10 mg/kg) was 2.76 h and the Vd/F ([1]; plasma, s.c. 10 mg/kg) was 7.62 L/kg. For the same compound, the CLf ([1]; plasma, s.c. 10 mg/kg) was 31.87 mL/min/kg, the “estimated free plasma noribogaine Cmax” value ([2]; 60 mg oral dose, mild QT effect) was “approximately 100 nM” and the “estimated free plasma noribogaine Cmax” value ([2]; 180 mg oral dose) was 300 to 400 nM. The “% Stability (4 h)” value [3] was 105%, the “% Unbound” value ([3]; plasma, pH 7.4) was 40.1% and the EC50 (hMOR) was 11.1 µM. It also gave an Emax (hMOR) of 57%.
